From the supplement of paper PMC10920090 come the findings set out here.

Assay [1] relates to MDA-MB-231. Put plainly: drug sensitivity score (DSS), cytotoxicity CellTox Green; higher = more cytotoxic; extreme values may be limits of the assay. The following applies: 72 h.
In assay [2] the test system is MDA-MB-231. Put plainly: drug sensitivity score (DSS), cell viability CellTiter-Glo; higher = more sensitive; extreme values may be limits of the assay. The following applies: 72 h.
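Throughout, for drug sensitivity score (DSS), cytotoxicity CellTox Green: DSS summarises each dose–response curve by combining IC50, EC50, maximal inhibition and efficacy across drug concentrations.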

For `COc1cc2c(N3CCN(C(=O)Nc4ccc(OC(C)C)cc4)CC3)ncnc2cc1OCCCN1CCCCC1` [Tandutinib], the drug sensitivity score in assay [1] (shRNA: shPPFIA1_1) was found to be 0 DSS; in assay [1] (shRNA: shScramble) it was 0 DSS; in assay [2] (shRNA: shPPFIA1_1) it was 9.9 DSS; in assay [2] (shRNA: shScramble) it was 6.5 DSS.
In the case of `S=C(NCc1ccc2c(c1)OCO2)N1CCN(c2ncnc3c2oc2ccccc23)CC1` [Amuvatinib], the drug sensitivity score in assay [1] (shRNA: shPPFIA1_1) is 5.5 DSS; in assay [1] (shRNA: shScramble) it was 0 DSS; in assay [2] (shRNA: shPPFIA1_1), 0.6 DSS; in assay [2] (shRNA: shScramble), 1.8 DSS.
As for `CON(C)C(=O)N1N=C(c2cc(F)ccc2F)S[C@@]1(CCCN)c1ccccc1` [Filanesib], the drug sensitivity score in assay [1] (shRNA: shPPFIA1_1) stood at 14.1 DSS; in assay [1] (shRNA: shScramble) it was 9.3 DSS; in assay [2] (shRNA: shPPFIA1_1) it was 0 DSS; in assay [2] (shRNA: shScramble), 8.4 DSS.
As for `CN(C)CCOc1ccc(/C(=C(/CCCl)c2ccccc2)c2ccccc2)cc1` [Toremifene], the drug sensitivity score in assay [1] (shRNA: shPPFIA1_1) came out at 4.6 DSS; in assay [1] (shRNA: shScramble), 1.8 DSS; in assay [2] (shRNA: shPPFIA1_1), 2.4 DSS; in assay [2] (shRNA: shScramble) it was 1.3 DSS.
On the same counts, the results for `CO[C@H]1/C=C\C=C(/C)C(=O)NC2=CC(=O)C(NCCN(C)C)=C(C[C@@H](C)C[C@H](OC)[C@H](O)[C@@H](C)/C=C(\C)[C@@H]1OC(N)=O)C2=O` [Alvespimycin] are 0 DSS, 0.6 DSS, 4.8 DSS and 7.2 DSS.
On the same counts, the results for `CN(C)CCN1C(=O)c2cccc3cc(N)cc(c23)C1=O` [Amonafide] are 1 DSS, 2.5 DSS, 3.5 DSS and 8.2 DSS.
The matching figures for `O=C(Nc1nc2cccc(-c3ccc(CN4CCS(=O)(=O)CC4)cc3)n2n1)C1CC1` [Filgotinib]: 0 DSS, 0 DSS, 0 DSS and 0.2 DSS.
`c1cc(CN2CCCNCCNCCCNCC2)ccc1CN1CCCNCCNCCCNCC1` [Plerixafor]: the drug sensitivity score in assay [1] (shRNA: shPPFIA1_1), in assay [1] (shRNA: shScramble), in assay [2] (shRNA: shPPFIA1_1) and in assay [2] (shRNA: shScramble) was 0 DSS each time.
Take `Cc1cccc(-c2[nH]c(CNc3ccccc3F)nc2-c2ccc3ncnn3c2)n1` [TEW-7197]: the drug sensitivity score in assay [1] (shRNA: shPPFIA1_1) is 0.9 DSS; in assay [1] (shRNA: shScramble), 0 DSS; in assay [2] (shRNA: shPPFIA1_1), 9.1 DSS; in assay [2] (shRNA: shScramble) it was 0 DSS.
`Cc1cc(Nc2cc(N3CCN(C)CC3)nc(/C=C/c3ccccc3)n2)n[nH]1` [ENMD-2076]: the drug sensitivity score came to 2 DSS in assay [1] (shRNA: shPPFIA1_1), 0.9 DSS in assay [1] (shRNA: shScramble), 3.8 DSS in assay [2] (shRNA: shPPFIA1_1) and 8.8 DSS in assay [2] (shRNA: shScramble).
`COc1ccc(-c2cc3c(C)nc(N)nc3n([C@H]3CC[C@H](OCCO)CC3)c2=O)cn1`: the drug sensitivity score in assay [1] (shRNA: shPPFIA1_1) came to 1.1 DSS; in assay [1] (shRNA: shScramble), 2.4 DSS; in assay [2] (shRNA: shPPFIA1_1), 0 DSS; in assay [2] (shRNA: shScramble), 6.2 DSS.
For the compound `CC(C)C[C@H](NC(=O)[C@H](Cc1ccccc1)NC(=O)c1cnccn1)B(O)O` [Bortezomib], the drug sensitivity score in assay [1] (shRNA: shPPFIA1_1) amounted to 26.8 DSS; in assay [1] (shRNA: shScramble), 24.3 DSS; in assay [2] (shRNA: shPPFIA1_1), 21.3 DSS; in assay [2] (shRNA: shScramble) it was 23.1 DSS.
On the same counts, the results for `CCCCc1nc2cc(/C=C/C(=O)NO)ccc2n1CCN(CC)CC` [Pracinostat] are 8.1 DSS, 8.5 DSS, 10.6 DSS and 11.9 DSS.
On the same counts, the results for `O=C1NC(=O)/C(=C/c2ccc3nccc(-c4ccncc4)c3c2)S1` are 0 DSS, 0 DSS, 0 DSS and 4.3 DSS.
The matching figures for `CCS(=O)(=O)c1cccc(-c2cc(C(=O)NC3CCN(C)CC3)c(C)c3[nH]c4ncc(C)cc4c23)c1` [TAK-901]: 0 DSS, 0 DSS, 0 DSS and 3.6 DSS.
As to `C[C@]1(O)C[C@@H](c2nc(-c3ccc4ccc(-c5ccccc5)nc4c3)c3c(N)nccn32)C1` [Linsitinib], the drug sensitivity score in assay [1] (shRNA: shPPFIA1_1), in assay [1] (shRNA: shScramble), in assay [2] (shRNA: shPPFIA1_1) and in assay [2] (shRNA: shScramble) was 0 DSS each time.
